What was measured:
Ldtfm [1] = target: T1, Ldtfm (Enterococcus faecium, UniProt Q3Y185); assay: stopped-flow competition with nitrocefin at […] nm; assay type: binding; conditions: covalent; irreversible acylation; 22 µM enzyme, 50 µM nitrocefin, 64 µM imipenem; 100 mM sodium phosphate pH 6.0; 20 °C
T1 construct: gene HMPREF0351_12555; catalytic domain, residues 341 to 466

Ldtfm [2] = target: T1, Ldtfm; assay: stopped-flow spectrophotometry at […] nm, slope of kobs against nitrocefin concentration; assay type: biochemical; conditions: covalent; reversible acylation of catalytic Cys; 11 µM enzyme; 100 mM sodium phosphate pH 6.0; 20 °C

T1 sequence (Q3Y185 entry or part of it): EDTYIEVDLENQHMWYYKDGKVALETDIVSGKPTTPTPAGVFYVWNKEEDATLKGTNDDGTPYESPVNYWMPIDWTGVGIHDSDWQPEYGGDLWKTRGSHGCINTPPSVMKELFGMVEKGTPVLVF

SMILES: C[C@@H](O)[C@H]1C(=O)N2C(C(=O)O)=C(SCCN=CN)C[C@H]12 [imipenem]
- stopped-flow competition with nitrocefin at 486 nm (Ldtfm [1]): imipenem gradually replaced nitrocefin in the enzyme active site

SMILES: O=C(Cc1cccs1)N[C@@H]1C(=O)N2C(C(=O)O)=C(/C=C/c3ccc([N+](=O)[O-])cc3[N+](=O)[O-])CS[C@H]12 [nitrocefin]
- efficacy of the acylation reaction (Ldtfm [2]): 24,000 ± 700 M^−1 s^−1
